Series [1] can be described thus: Solubility of the compound. It is filed as physicochemical.
Series [2] addresses Tyrosine-protein kinase JAK1 (Homo sapiens) (UniProt P23458). The settings on record: at 10 µM.
Series [3] concerns RAW264.7. Kind of series: Antiinflammatory activity in LPS-induced mouse RAW264.7 cells assessed as protection against cell damage by measuring reduction in cell shrinking at 10 ug/ml cotreated with LPS measured after 18 hrs by light microscopy. In kind it is functional, cell-based.
Series [4] concerns RAW264.7. Kind of series: Antiinflammatory activity in LPS-induced mouse RAW264.7 cells assessed as protection against cell damage by measuring reduction in cell rounding at 10 ug/ml co-treated with LPS measured after 18 hrs by light microscopy. In kind it is functional, cell-based.
The subject of series [5] is RAW264.7. Kind of series: Cytotoxicity against mouse RAW264.7 cells assessed as cell growth inhibition measured after 24 hrs by MTT assay. In kind it is cell-based. The following applies: for IC50: Mus musculus, RAW264.7, 24 h; for Activity: mouse, raw264.7, 24 h.
Series [6] has as its system RAW264.7. Kind of series: Antiinflammatory activity in LPS-induced mouse RAW264.7 cells assessed as protection against cell damage by measuring reduction in apoptotic body formation at 10 ug/ml cotreated with LPS measured after 18 hrs by light microscopy. It is filed as functional, cell-based.
Series [7] relates to RAW264.7. Description: Antiinflammatory activity in mouse RAW264.7 cells assessed as reduction in LPS-induced JAK2 expression by Western blot analysis. In kind it is functional, cell-based. (In general: A western blot detects proteins with antibodies after separation by electrophoresis.)
The test system of series [8] is RAW264.7. Kind of series: Antiinflammatory activity in mouse RAW264.7 cells assessed as reduction in LPS-induced JAK1 expression by Western blot analysis. In kind it is functional, cell-based.
In series [9] the test system is RAW264.7. Kind of series: Antiinflammatory activity in mouse RAW264.7 cells assessed as reduction in LPS-induced upregulation of IL-1 beta expression by Western blot analysis. In kind it is functional, cell-based.
The test system of series [10] is RAW264.7. Kind of series: Antiinflammatory activity in LPS-induced mouse RAW264.7 cells assessed as reduction in NO generation by measuring NO level at 10 ug/ml measured after 18 hrs by Griess method. In kind it is functional, cell-based. (In general: Griess reagent forms a coloured azo dye with nitrite.)
Series [11] has as its system RAW264.7. Description: Antiinflammatory activity in LPS-induced mouse RAW264.7 cells assessed as reduction in NO generation by measuring NO level at 5 ug/ml measured after 18 hrs by Griess method. It is filed as functional, cell-based.
For series [12], the system named is RAW264.7. Kind of series: Antiinflammatory activity in LPS-induced mouse RAW264.7 cells assessed as reduction in NO generation by measuring NO level at 2.5 ug/ml measured after 18 hrs by Griess method. It is filed as functional, cell-based.

The source made the active and inactive calls. The rule behind the calls is not given here.

Tyrosine-protein kinase JAK1 (Homo sapiens), sequence (P23458 whole entry): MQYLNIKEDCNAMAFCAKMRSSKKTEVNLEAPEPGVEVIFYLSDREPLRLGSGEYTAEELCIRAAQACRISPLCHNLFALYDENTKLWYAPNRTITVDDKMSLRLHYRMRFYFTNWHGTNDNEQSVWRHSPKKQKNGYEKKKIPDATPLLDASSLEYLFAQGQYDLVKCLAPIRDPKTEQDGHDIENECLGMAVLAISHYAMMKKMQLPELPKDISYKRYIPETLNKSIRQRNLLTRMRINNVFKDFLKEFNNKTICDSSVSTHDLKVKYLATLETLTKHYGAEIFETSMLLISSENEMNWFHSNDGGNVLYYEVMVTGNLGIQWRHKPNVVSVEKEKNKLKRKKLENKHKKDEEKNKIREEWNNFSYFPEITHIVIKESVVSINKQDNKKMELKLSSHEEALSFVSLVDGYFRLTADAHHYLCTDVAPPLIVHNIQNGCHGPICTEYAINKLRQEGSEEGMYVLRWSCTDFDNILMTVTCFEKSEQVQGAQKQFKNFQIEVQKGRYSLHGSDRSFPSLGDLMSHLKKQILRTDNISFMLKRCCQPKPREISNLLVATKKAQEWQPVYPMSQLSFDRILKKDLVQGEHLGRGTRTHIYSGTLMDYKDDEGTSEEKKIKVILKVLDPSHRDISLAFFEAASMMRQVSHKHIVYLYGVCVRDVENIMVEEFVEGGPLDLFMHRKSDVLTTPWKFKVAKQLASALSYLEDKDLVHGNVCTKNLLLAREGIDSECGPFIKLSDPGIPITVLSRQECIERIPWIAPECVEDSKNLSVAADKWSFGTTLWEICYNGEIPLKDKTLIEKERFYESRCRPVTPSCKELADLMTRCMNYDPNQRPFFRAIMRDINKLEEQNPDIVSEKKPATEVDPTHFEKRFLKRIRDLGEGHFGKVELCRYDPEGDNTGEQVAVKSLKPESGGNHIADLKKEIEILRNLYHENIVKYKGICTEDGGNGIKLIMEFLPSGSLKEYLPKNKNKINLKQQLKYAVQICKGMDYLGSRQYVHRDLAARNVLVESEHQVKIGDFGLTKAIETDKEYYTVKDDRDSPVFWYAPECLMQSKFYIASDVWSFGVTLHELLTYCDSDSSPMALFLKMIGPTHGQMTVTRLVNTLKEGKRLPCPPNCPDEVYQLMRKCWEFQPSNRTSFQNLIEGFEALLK

Regarding `O=[N+]([O-])c1cccc(S(=O)(=O)N2CCC(n3cc(-c4ncnc5[nH]ccc45)cn3)CC2)c1`, in [1], the solubility result is “Insoluble”. In series [2], this molecule yielded an inhibition of 92.4%.

As for `Cc1ccc(S(=O)(=O)N2CCC(n3cc(-c4ncnc5[nH]ccc45)cn3)CC2)cc1`, in series [1], the solubility result is listed as “Insoluble”. In series [2], this molecule displayed an inhibition of 92.4%.

`O=C(O)C1CCN(CC(=O)N2CCC(n3cc(-c4ncnc5[nH]ccc45)cn3)CC2)CC1`: the outcome with RAW264.7 [3], in the series with RAW264.7 [4], in the series on RAW264.7 [6] and in the series with RAW264.7 [9] was Active. Besides, the half-inhibitory concentration (IC50) in the series with RAW264.7 [5] is 80.9 µM. Also, the Activity entry in the series with RAW264.7 [5], with RAW264.7 [7] and in the series with RAW264.7 [8] was “Dose-dependent effect” throughout. In series [2], this molecule had an inhibition of 92.5%.

In the case of `CN1CCN(CC(=O)N2CCC(n3cc(-c4ncnc5[nH]ccc45)cn3)CC2)CC1`, the inhibition in [2] came out at 72.8%.

For the molecule `O=C(CN1CCCCC1)N1CCC(n2cc(-c3ncnc4[nH]ccc34)cn2)CC1`, the inhibition in [2] is 65.6%.

Regarding `CN(C)CC(=O)N1CCC(n2cc(-c3ncnc4[nH]ccc34)cn2)CC1`, the inhibition in [2] was found to be 46.9%.

Consider `O=S(=O)(c1cccc(Br)c1)N1CCC(n2cc(-c3ncnc4[nH]ccc34)cn2)CC1`, for which the solubility result in series [1] was “Insoluble”. In [2], the inhibition stood at 72.8%.

In the case of `O=[N+]([O-])c1ccccc1S(=O)(=O)N1CCC(n2cc(-c3ncnc4[nH]ccc34)cn2)CC1`, in series [1], the solubility result is reported as “Insoluble”. Further, the outcome with RAW264.7 [10], in the series with RAW264.7 [11] and in the series with RAW264.7 [12] was Active. The molecule also gave an inhibition in [2] of 96.6%.

Consider `O=C(CN1CCN(CCO)CC1)N1CCC(n2cc(-c3ncnc4[nH]ccc34)cn2)CC1`, for which the inhibition in series [2] stood at 83%.

Take `O=S(=O)(c1ccc(Cl)cc1)N1CCC(n2cc(-c3ncnc4[nH]ccc34)cn2)CC1`: the solubility entry in [1] is recorded as “Insoluble”. In [2], this molecule returned an inhibition of 63.7%.

With `CCS(=O)(=O)N1CCC(n2cc(-c3ncnc4[nH]ccc34)cn2)CC1`, the solubility entry in series [1] is recorded as “Insoluble”. In series [2], this molecule came in with an inhibition of 95.2%.

As for `O=S(=O)(c1ccc(Br)cc1)N1CCC(n2cc(-c3ncnc4[nH]ccc34)cn2)CC1`, the solubility entry in series [1] is reported as “Insoluble”. In addition, the inhibition in [2] came out at 60.3%.

As to `O=S(=O)(C1CC1)N1CCC(n2cc(-c3ncnc4[nH]ccc34)cn2)CC1`, in series [1], the solubility result was “Insoluble”. In series [2], this molecule registered an inhibition of 59.4%.

For the molecule `O=S(=O)(c1ccc(F)cc1)N1CCC(n2cc(-c3ncnc4[nH]ccc34)cn2)CC1`, the solubility result in series [1] is reported as “Insoluble”. The molecule further showed an inhibition in series [2] of 93.4%.

On to `N#Cc1ccc(S(=O)(=O)N2CCC(n3cc(-c4ncnc5[nH]ccc45)cn3)CC2)cc1`, for which the solubility entry in [1] is given as “Insoluble”. The inhibition in [2] came to 72.5%.

`O=[N+]([O-])c1ccc(S(=O)(=O)N2CCC(n3cc(-c4ncnc5[nH]ccc45)cn3)CC2)cc1`: the solubility entry in [1] is recorded as “Insoluble”. Further, the inhibition in [2] was determined as 99.6%.

In series [2], `O=C(CN1CCCC1)N1CCC(n2cc(-c3ncnc4[nH]ccc34)cn2)CC1` gave an inhibition of 55.1%.

Turning to `O=S(=O)(c1cc(F)cc(F)c1)N1CCC(n2cc(-c3ncnc4[nH]ccc34)cn2)CC1`, the solubility result in [1] is on record as “Insoluble”. Also, the inhibition in [2] came out at 93.6%.

On to `Cc1ccccc1S(=O)(=O)N1CCC(n2cc(-c3ncnc4[nH]ccc34)cn2)CC1`, for which, in series [1], the solubility entry is recorded as “Insoluble”. Further, in [2], the inhibition worked out at 94.7%.

On to `CS(=O)(=O)N1CCC(n2cc(-c3ncnc4[nH]ccc34)cn2)CC1`, for which the solubility entry in series [1] is reported as “Insoluble”. Moreover, in series [2], the inhibition came to 22.1%.

For `COc1ccc(S(=O)(=O)N2CCC(n3cc(-c4ncnc5[nH]ccc45)cn3)CC2)cc1`, the solubility entry in series [1] was “Insoluble”. Also, in [2], the inhibition is 53.2%.

In series [2], `O=C(CN1CCOCC1)N1CCC(n2cc(-c3ncnc4[nH]ccc34)cn2)CC1` showed an inhibition of 69.6%.

Regarding `CC1CCN(CC(=O)N2CCC(n3cc(-c4ncnc5[nH]ccc45)cn3)CC2)CC1`, the result with RAW264.7 [3], with RAW264.7 [4], with RAW264.7 [6], in the series on RAW264.7 [10], in the series with RAW264.7 [11] and in the series on RAW264.7 [9] was Active. For the same molecule, the outcome in the series on RAW264.7 [12] was Active. Moreover, in the series on RAW264.7 [5], the IC50 turned out to be 88.2 µM. Moreover, the Activity result with RAW264.7 [5], with RAW264.7 [7] and in the series on RAW264.7 [8] was “Dose-dependent effect” each time. In [2], this molecule showed an inhibition of 90.3%.

In turn, `CCN(CC)CC(=O)N1CCC(n2cc(-c3ncnc4[nH]ccc34)cn2)CC1` showed an inhibition in [2] of 38.6%.

Regarding `CCS(=O)(=O)N1CC(CC#N)(n2cc(-c3ncnc4[nH]ccc34)cn2)C1`, the outcome with RAW264.7 [10], with RAW264.7 [11] and in the series with RAW264.7 [12] was Active.

As to `O=S(=O)(c1ccccc1)N1CCC(n2cc(-c3ncnc4[nH]ccc34)cn2)CC1`, the solubility result in [1] is on record as “Insoluble”. In series [2], the inhibition was determined as 2.7%.

Usually inhibition stands for the relative decrease from the control value, in per cent. Higher therefore signals strong suppression. One may read the IC50 as the point on the concentration scale where inhibition reaches its midpoint.

The record behind these values is ChEMBL document CHEMBL4393739, “Design, synthesis and anti-inflammatory evaluation of novel pyrrolo[2,3-d]pyrimidin derivatives as potent JAK inhibitors” (Bioorg Med Chem, 2019).
